The values below are quoted from earlier work in patent US11229674B1, “Nutraceuticals for suppressing indolamine 2,3 deoxygenase” (Therapeutic Solutions International, Inc., priority 2020, dated 2022).

For series [1], the target named is T1, IDO (Mus musculus, UniProt P28776).
T1 construct: host or cells: tumour-bearing mice (whole animal)
The note with it: pregnant mice, allogeneic fetuses.

Series [2] concerns the target T1, IDO. As to conditions: mice, combined with chemotherapeutic agents.

T1 sequence (P28776 whole entry): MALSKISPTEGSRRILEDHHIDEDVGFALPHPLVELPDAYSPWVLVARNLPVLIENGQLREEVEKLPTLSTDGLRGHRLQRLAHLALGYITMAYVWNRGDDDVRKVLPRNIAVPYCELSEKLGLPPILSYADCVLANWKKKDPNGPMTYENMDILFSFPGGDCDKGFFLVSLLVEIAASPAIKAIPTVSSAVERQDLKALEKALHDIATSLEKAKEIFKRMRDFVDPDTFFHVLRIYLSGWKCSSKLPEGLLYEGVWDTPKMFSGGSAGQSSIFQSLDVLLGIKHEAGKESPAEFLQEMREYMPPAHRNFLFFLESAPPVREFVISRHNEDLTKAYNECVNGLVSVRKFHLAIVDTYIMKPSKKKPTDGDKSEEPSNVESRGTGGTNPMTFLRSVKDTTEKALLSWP

For `Cn1cc(CC(N)C(=O)O)c2ccccc21` (centres unmarked) [1MT], at IDO [1], the Fetal allograft rejection entry is recorded as “rapid, T cell-induced rejection of all allogeneic concept”. Moreover, the Tumor growth result at IDO [2] is given as “synergize with chemotherapeutic agents to reduce tumor growth”.
